Experimental data taken from patent US20250162989A1, “USP30 INHIBITORS AND USES THEREOF” (Vincere Biosciences, Inc., priority 2021, published 2025).
pIC50: −log10 of the molar value.

Molecular target: USP30 (Homo sapiens (Human), UniProt Q70CQ3)
Assay: Dundee MALDI-TOF mass spectrometry assay (K48-linked diubiquitin cleavage)
Assay type: biochemical
Conditions: USP30 25 ng/μl, K48-linked diubiquitin 5.6 μM, read-out: IC50
Method: USP30 was diluted in a buffer containing 40 mM Tris, 0.01% BSA, 1 mM DTT and K48 in 40 mM Tris, 0.01% BSA.
The compounds were pre-incubated with the USP30 for 5 mins at room temp before the K48 dimer addition. The assay mixture was then incubated for 45 mins at room temp. The assay was stopped by the addition of TFA to a final concentration of 2% (v/v).
Acidified samples of the DUB assays were mixed with 0.5 mM 15N-ubiquitin and then with one part of 2% (v/v) TFA and one part of 2.5 DHAP matrix solution (7.6 mg of 2.5 DHAP in […] ethanol and […] of an aqueous 12 mg ml 1 diammonium hydrogen citrate).

Sequence of USP30 (Q70CQ3 whole entry): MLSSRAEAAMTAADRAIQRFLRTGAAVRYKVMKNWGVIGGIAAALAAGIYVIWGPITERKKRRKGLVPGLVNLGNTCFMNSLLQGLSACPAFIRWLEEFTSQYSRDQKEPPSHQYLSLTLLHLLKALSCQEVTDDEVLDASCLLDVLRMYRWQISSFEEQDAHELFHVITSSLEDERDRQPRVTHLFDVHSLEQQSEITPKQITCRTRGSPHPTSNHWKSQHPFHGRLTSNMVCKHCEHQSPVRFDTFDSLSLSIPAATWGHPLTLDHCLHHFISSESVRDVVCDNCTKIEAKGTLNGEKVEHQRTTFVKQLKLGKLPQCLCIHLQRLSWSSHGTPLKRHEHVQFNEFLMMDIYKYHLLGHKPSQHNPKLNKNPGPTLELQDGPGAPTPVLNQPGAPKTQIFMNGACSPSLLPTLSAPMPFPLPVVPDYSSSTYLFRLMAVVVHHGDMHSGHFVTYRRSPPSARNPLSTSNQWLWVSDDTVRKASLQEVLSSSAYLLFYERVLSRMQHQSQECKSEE

pIC50 | SMILES
> 7.30 | COCCC(C)(C)NS(=O)(=O)c1ccc(NC(=O)[C@H](Cc2ccccc2)NC(=O)c2ccc(F)cc2)cc1C(F)(F)F [Compound I-65]

Same assay, conditions: USP30 25 ng/μl, K48-linked diubiquitin 5.6 μM, read-out: USP30 IC50 μM (avg)

IC50 [µM] | SMILES
0.05 to 1 | CC(=O)O[C@@H]1C[C@@H](C(=O)Nc2ccc(S(=O)(=O)NC(C)(C)C)cc2)N(C(=O)c2ccc(F)cc2)C1 [Compound I-266]
< 0.05 | O=C(N[C@@H](CC1CCOCC1)C(=O)Nc1ccc(S(=O)(=O)NC2CCCC2)nc1)c1ccc(F)cc1 [Compound I-97]
< 0.05 | CC(C)(C)NS(=O)(=O)c1cccc2c(NC(=O)[C@H](Cc3ccccc3)NC(=O)c3ccc(F)nc3)cccc12 [Compound I-182]
0.05 to 1 | CC(C)(C)NS(=O)(=O)c1ccc(NC(=O)[C@H](CC2CCN(CCC(F)(F)F)CC2)NC(=O)c2ccc(F)cc2)cn1 [Compound I-208]
< 0.05 | CC(C)C(=O)N1CCC(C[C@H](NC(=O)c2ccc(F)cc2)C(=O)Nc2ccc(S(=O)(=O)NC(C)(C)C)cc2)CC1 [Compound I-161]
< 0.05 | CC(C)N1CCC(C[C@H](NC(=O)c2ccc(F)cc2)C(=O)Nc2ccc(S(=O)(=O)NC(C)(C)C)cc2)CC1 [Compound I-117]

Molecular target: recombinant USP30 (amino acids 57-517 of the human sequence) (Homo sapiens (Human), UniProt Q70CQ3)
Sequence (Q70CQ3 57-517): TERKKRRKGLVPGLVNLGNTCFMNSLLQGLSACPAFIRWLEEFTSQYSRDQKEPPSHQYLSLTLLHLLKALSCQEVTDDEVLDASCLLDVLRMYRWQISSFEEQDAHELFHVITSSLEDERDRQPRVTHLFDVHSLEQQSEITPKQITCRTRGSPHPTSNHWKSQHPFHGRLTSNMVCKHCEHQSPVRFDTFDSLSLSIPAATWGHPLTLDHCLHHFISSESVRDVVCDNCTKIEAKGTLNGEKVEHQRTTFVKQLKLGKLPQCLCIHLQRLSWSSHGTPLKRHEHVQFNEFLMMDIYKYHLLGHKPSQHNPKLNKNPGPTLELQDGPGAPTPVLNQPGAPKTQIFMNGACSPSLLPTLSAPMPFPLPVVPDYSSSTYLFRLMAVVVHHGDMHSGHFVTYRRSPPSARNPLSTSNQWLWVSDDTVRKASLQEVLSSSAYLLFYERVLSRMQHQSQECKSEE
Assay: In vitro USP30 biochemical assay (Ubiquitin-Rhodamine substrate)
Conditions: 1.5 nM recombinant USP30, 25 nM Ubiquitin-Rhodamine, fluorescence
Method: In vitro biochemical assay to establish the potency of compounds for USP30 inhibition: a 384-well plate assay using a fluorophore tagged substrate of USP30 was used for in vitro screening of compounds. Each compound was tested at
10 different concentrations (0.5 to 10,000 nM) in duplicate wells. […] Data were analyzed using Graph Pad Prism software with a four-parameter (floating slope) fit to log concentration data to determine IC50s.

IC50 [µM] | SMILES
0.05 to 1 | CC(=O)O[C@@H]1C[C@@H](C(=O)Nc2ccc(S(=O)(=O)NC(C)(C)C)cc2)N(C(=O)c2ccc(F)cc2)C1 [Compound I-266]
0.05 to 1 | COCCC(C)(C)NS(=O)(=O)c1ccc(NC(=O)[C@H](Cc2ccccc2)NC(=O)c2ccc(F)cc2)cc1C(F)(F)F [Compound I-65]
0.05 to 1 | CC(C)(C)NS(=O)(=O)c1ccc(NC(=O)[C@H](CC2CCN(CCC(F)(F)F)CC2)NC(=O)c2ccc(F)cc2)cn1 [Compound I-208]
1 to 10 | CO[C@@H]1C[C@@H](C(=O)Nc2ccc(S(=O)(=O)NC(C)(C)C)cc2)N(C(=O)c2ccc(F)cc2)C1 [Compound I-267]
0.05 to 1 | COc1cc(NC(=O)[C@H](CC(C)C)NC(=O)c2ccc(F)cc2)cnc1S(=O)(=O)NC(C)(C)C [Compound I-15]
0.05 to 1 | CC(C)C[C@H](NC(=O)c1ccc(F)cc1)C(=O)Nc1ccc(S(=O)(=O)NC2COC2)cc1 [Compound I-22]
0.05 to 1 | COc1cc(NC(=O)[C@H](CC2CCOCC2)NC(=O)c2ccc(F)cc2)cnc1S(=O)(=O)NC(C)(C)CO [Compound I-76]
1 to 10 | COc1cc(NC(=O)[C@H](CC2CCN(C)CC2)NC(=O)c2ccc(F)cc2)cnc1S(=O)(=O)NC(C)(C)CO [Compound I-100]
1 to 10 | O=C(Nc1ccc(S(=O)(=O)NC2COC2)cc1)[C@@H]1C[C@@H](c2ccccc2)CN1C(=O)c1ccc(F)cc1 [Compound I-263]
1 to 10 | CC(C)(C)NS(=O)(=O)c1ccc(-c2nc([C@H](Cc3ccccc3)NC(=O)c3ccc(F)cc3)n[nH]2)cc1 (stereo in doubt) [Compound I-55, N-(1-(5-(4-(N-(tert-butyl)sulfamoyl)phenyl)-1H-1,2,4-triazol-3-yl)-2-phenylethyl)-4-fluorobenzamide]
0.05 to 1 | CN1CCC(C[C@H](NC(=O)c2ccc(F)nc2)C(=O)Nc2ccc(S(=O)(=O)NC(C)(C)C)cc2)CC1 [Compound I-183]
1 to 10 | CC(C)(C)NS(=O)(=O)c1ccc(NC(=O)[C@H](Cc2ccccc2)NC(=O)c2ccc3nc[nH]c3c2)cc1 [Compound I-194]
1 to 10 | CC(C)(CN1CCOCC1)NS(=O)(=O)c1ccc(NC(=O)[C@@H](NC(=O)c2ccc(F)cc2)C2CC2)cc1 [Compound I-53]
0.05 to 1 | O=C(N[C@@H](CC1CCOCC1)C(=O)Nc1ccc(S(=O)(=O)NC2COC2)nc1)c1ccc(F)cc1 [Compound I-5]
1 to 10 | CN1CCC(NS(=O)(=O)c2ccc(NC(=O)[C@H](CC3CCOCC3)NC(=O)c3ccc(F)cc3)cn2)CC1 [Compound I-98]
0.05 to 1 | O=C(N[C@@H](CC1CCNCC1)C(=O)Nc1ccc(S(=O)(=O)N[C@@H]2CCOC2)nc1)c1ccc(F)cc1 [Compound I-108]
0.05 to 1 | N#CN1CC(NC(=O)[C@H](Cc2ccccc2)NC(=O)c2ccc(F)cc2)C1 [Compound I-241]
1 to 10 | CC(C)(C)NS(=O)(=O)c1ccc(NC(=O)[C@H](Cc2ccccc2)NC(=O)c2ccc3cn[nH]c3c2)cc1 [Compound I-190]
0.05 to 1 | O=C(N[C@@H](CC1CCNCC1)C(=O)Nc1ccc(S(=O)(=O)NC2CCOCC2)nc1)c1ccc(F)cc1 [Compound I-144]
1 to 10 | O=C(N[C@@H](CC1CCNCC1)C(=O)Nc1ccc(S(=O)(=O)NC2COC2)nc1)c1ccc(F)cc1 [Compound I-111]
1 to 10 | COc1cc(NC(=O)[C@H](CC(C)C)NC(=O)c2ccc(F)cc2)cnc1S(=O)(=O)NC(C)(C)CO [Compound I-73]

IC50 [µM] | SMILES
0.05 to 1 | COc1cc(NC(=O)[C@H](CC2CCN(C)CC2)NC(=O)c2ccc(F)cc2)ccc1S(=O)(=O)NC1COC1 [Compound I-96]
0.05 to 1 | COc1cc(NC(=O)[C@H](CC2CCOCC2)NC(=O)c2ccc(F)cc2)ccc1S(=O)(=O)NC1CCN(C)CC1 [Compound I-88]
0.05 to 1 | COc1cc(NC(=O)[C@@H]2C[C@@H](C3CCCCC3)CN2C(=O)c2ccc(F)cc2)ccc1S(=O)(=O)NC(C)(C)CO [Compound I-259]
0.05 to 1 | CC(C)(CO)NS(=O)(=O)c1ccc(NC(=O)[C@H](CC2CCOCC2)NC(=O)c2ccc(F)cc2)cn1 [Compound I-74]
0.05 to 1 | COc1cc(NC(=O)[C@H](CC2CCOCC2)NC(=O)c2ccc(F)cc2)cnc1S(=O)(=O)NC1CCC1 [Compound I-81]
1 to 10 | CC(C)(CO)NS(=O)(=O)c1ccc(NC(=O)[C@@H](NC(=O)c2ccc(F)cc2)C2CC2)cc1 [Compound I-52]
0.05 to 1 | CC(C)(C)NS(=O)(=O)c1ccc(NC(=O)[C@H](Cc2ccccc2)NC(=O)C2CCN(C#N)CC2)cc1 [Compound I-233]
1 to 10 | CN1CCC(C[C@H](NC(=O)c2ccc(F)cc2)[C@@H](O)CNc2ccc(S(=O)(=O)NC(C)(C)C)cc2)CC1 [Compound I-234]
0.05 to 1 | CC(C)(C)NS(=O)(=O)c1ccc(NC(=O)[C@@H]2C[C@H](c3ccccc3)CN2C(=O)c2ccc(F)cc2)cc1 [Compound I-283]
1 to 10 | CC(C)(C)NS(=O)(=O)c1ccc(NC(=O)[C@@H]2CCCN2C(=O)c2ccc(F)cc2)cc1 [Compound I-50, (S)—N-(4-(N-tert-butylsulfamoyl)phenyl)-1-(4-fluorobenzoyl)pyrrolidine-2-carboxamide]
0.05 to 1 | CC(C)(C)C[C@H](NC(=O)c1ccc(F)cc1)C(=O)Nc1ccc(S(=O)(=O)NC(C)(C)C)cc1 [Compound I-25]
0.05 to 1 | CC(C)(C)NS(=O)(=O)c1ccc(NC(=O)[C@H](Cc2ccccc2)NC(=O)c2ccc3nn[nH]c3c2)cc1 [Compound I-189]
0.05 to 1 | CC(C)(C)NS(=O)(=O)c1ccc(NC(=O)[C@H](Cc2ccccc2)NC(=O)c2cncnc2)cc1 [Compound I-188]
0.05 to 1 | COc1cc(NC(=O)[C@H](CC2CCN(C)CC2)NC(=O)c2ccc(F)cc2)ccc1S(=O)(=O)N[C@@H]1CCOC1 [Compound I-95]
1 to 10 | CC(C)(C)NS(=O)(=O)c1ccc(NC[C@H](O)[C@H](CC2CCNCC2)NC(=O)c2ccc(F)cc2)cc1 [Compound I-235]
0.05 to 1 | COc1cc(NC(=O)[C@H](CC2CCOCC2)NC(=O)c2ccc(F)cc2)cnc1S(=O)(=O)NC(C)(C)C [Compound I-75]
1 to 10 | CN1CCC(C[C@H](NC(=O)c2ccc(F)cc2)C(=O)Nc2ccc(S(=O)(=O)NC3COC3)nc2)CC1 [Compound I-104]
0.05 to 1 | CC(C)(C)NS(=O)(=O)c1ccc(NC(=O)[C@H](CCO)NC(=O)c2ccc(F)cc2)cc1 [Compound I-242]
1 to 10 | CC(C)(CN1CCOCC1)NS(=O)(=O)c1ccc(NC(=O)[C@H](CCO)NC(=O)c2ccc(F)cc2)cc1 [Compound I-30]
1 to 10 | CC(C)(C)NS(=O)(=O)c1ccc(NC(=O)[C@H](Cc2ccccc2)c2nnc(-c3ccc(F)cc3)o2)cc1 (stereo in doubt) [Compound I-56, N-(4-(N-(tert-butyl)sulfamoyl)phenyl)-2-(5-(4-fluorophenyl)-1,3,4-oxadiazol-2-yl)-3-phenylpropanamide]

Same assay, conditions: […] recombinant USP30, 25 nM Ubiquitin-Rhodamine, fluorescence

IC50 [µM] | SMILES
< 0.05 | O=C(N[C@@H](CC1CCOCC1)C(=O)Nc1ccc(S(=O)(=O)NC2CCCC2)nc1)c1ccc(F)cc1 [Compound I-97]
< 0.05 | CC(C)(C)NS(=O)(=O)c1cccc2c(NC(=O)[C@H](Cc3ccccc3)NC(=O)c3ccc(F)nc3)cccc12 [Compound I-182]
< 0.05 | CC(C)C(=O)N1CCC(C[C@H](NC(=O)c2ccc(F)cc2)C(=O)Nc2ccc(S(=O)(=O)NC(C)(C)C)cc2)CC1 [Compound I-161]
> 10 | CC(C)(C)NS(=O)(=O)c1ccc(NC(=O)[C@H](Cc2ccccc2)NC(=O)c2cc[nH]c2)cc1 [Compound I-181]
> 10 | CN1CCC(C[C@H](NC(=O)N2CCN(C)CC2)C(=O)Nc2ccc(S(=O)(=O)NC(C)(C)C)cc2)CC1 [Compound I-218]
> 10 | CC1(NC(=O)[C@H](Cc2ccccc2)NC(=O)c2ccc(F)cc2)CN(C(=O)OCc2ccccc2)C1 [Compound I-252]
> 10 | CC(C)(C)NS(=O)(=O)c1ccc(NC(=O)C2CCCCN2C(=O)c2ccc(F)cc2)cc1 (stereo not shown) [Compound I-245]
> 10 | CC(=O)O[C@H]1C[C@@H](C(=O)Nc2ccc(S(=O)(=O)N[C@@H]3CCOC3)cc2)N(C(=O)c2ccc(F)cc2)C1 [Compound I-284]
> 10 | CN1CCN(C(=O)N[C@@H](CC2CCNCC2)C(=O)Nc2ccc(S(=O)(=O)NC(C)(C)C)cc2)CC1 [Compound I-219]
> 10 | CC(C)(C)NS(=O)(=O)c1ccc(NC(=O)C(Cc2ccccc2)c2nnc(-c3ccc(F)cc3)[nH]2)cc1 (stereo not shown) [Compound I-90]
> 10 | CC(C)(C)NS(=O)(=O)c1ccc(NC(=O)C(Cc2ccccc2)c2nnc(-c3ccccc3)[nH]2)cc1 (stereo not shown) [Compound I-89]
> 10 | O=C(N[C@@H](Cc1ccccc1)C(=O)N[C@@H]1CCN(S(=O)(=O)NC2COC2)C1)c1ccc(F)cc1 [Compound I-169]

SMILES | IC50 [µM]
CNS(=O)(=O)N1CCC(NC(=O)[C@H](Cc2ccccc2)NC(=O)c2ccc(F)cc2)CC1 [Compound I-118] | > 10
